Relative viability data for nine cell lines are collected here from the supplement of paper PMC10307832.

Holding throughout (experiment): relative viability (nuclei count vs DMSO), 5 days (fraction); higher = more cells survive
Compound in experiment [1]: CC1=NN=C(O1)C2=NN=C(C=C2)N3CCC(CC3)OC4=C(C=CC(=C4)F)Cl + N=C(N)NC(=N)NCCc1ccccc1 [Phenformin] (partner 250 µM)
An outline of the steps:
(§1)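 Medians of duplicate plates are given as relative viability. That measure is the nuclei count in treated wells divided by the count in vehicle wells. Counts were taken on 4× images of lung cancer cell lines in 1536-well plates, 5 days after pin-tool dosing the day after seeding with one drug alone or a fixed anchor-drug dose plus five library-drug doses (not always all listed) in √10 steps.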

Compound in experiment [2]: CC1=NN=C(O1)C2=NN=C(C=C2)N3CCC(CC3)OC4=C(C=CC(=C4)F)Cl + Cc1nc(NC(=O)N2CCC[C@H]2C(N)=O)sc1-c1ccnc(C(C)(C)C(F)(F)F)c1 [Alpelisib] (partner 2 µM)
An outline of the steps: as §1

Compound in experiment [3]: CC1=NN=C(O1)C2=NN=C(C=C2)N3CCC(CC3)OC4=C(C=CC(=C4)F)Cl + CC(=O)c1c(C)c2cnc(Nc3ccc(N4CCNCC4)cn3)nc2n(C2CCCC2)c1=O [Palbociclib] (partner 0.5 µM)
An outline of the steps: as §1

Compound in experiment [4]: CC1=NN=C(O1)C2=NN=C(C=C2)N3CCC(CC3)OC4=C(C=CC(=C4)F)Cl + Cc1cc(Nc2cc(N3CCN(C)CC3)nc(Sc3ccc(NC(=O)C4CC4)cc3)n2)n[nH]1 [Tozasertib] (partner 0.1 µM)
In a few lines:
as §1

Regarding NCI-H322M, the relative viability was 0.759 in experiment [1] (first compound 0.253 µM); 0.742 in experiment [1] (first compound 0.8 µM); 0.846 in experiment [1] (first compound 2.53 µM); 0.731 in experiment [1] (first compound 8 µM); 0.0721 in experiment [2] (first compound 0.253 µM); 0.707 in experiment [2] (first compound 0.8 µM). The relative viability was 0.7 in experiment [2] (first compound 2.53 µM); 0.747 in experiment [2] (first compound 8 µM); 0.471 in experiment [3] (first compound 0.253 µM); 0.509 in experiment [3] (first compound 0.8 µM); 0.469 in experiment [3] (first compound 2.53 µM); 0.492 in experiment [3] (first compound 8 µM). Further, the relative viability is 0.488 in experiment [4] (first compound 0.253 µM), 0.482 in experiment [4] (first compound 0.8 µM), 0.422 in experiment [4] (first compound 2.53 µM) and 0.436 in experiment [4] (first compound 8 µM).

In the case of NCI-H358, the relative viability was 0.369 in experiment [1] (first compound 0.253 µM); 0.304 in experiment [1] (first compound 0.8 µM); 0.359 in experiment [1] (first compound 2.53 µM); 0.305 in experiment [1] (first compound 8 µM); 0.72 in experiment [2] (first compound 0.253 µM); 0.829 in experiment [2] (first compound 0.8 µM). Besides, the relative viability turned out to be 0.778 in experiment [2] (first compound 2.53 µM); 0.822 in experiment [2] (first compound 8 µM); 0.137 in experiment [3] (first compound 0.253 µM); 0.12 in experiment [3] (first compound 0.8 µM); 0.119 in experiment [3] (first compound 2.53 µM); 0.133 in experiment [3] (first compound 8 µM). Also, the relative viability stood at 0.107 in experiment [4] (first compound 0.253 µM), 0.0958 in experiment [4] (first compound 0.8 µM), 0.116 in experiment [4] (first compound 2.53 µM) and 0.0977 in experiment [4] (first compound 8 µM).

Take NCI-H441: the relative viability in experiment [1] (first compound 0.253 µM) is 0.715; in experiment [1] (first compound 0.8 µM), 0.498; in experiment [1] (first compound 2.53 µM) it was 0.699; in experiment [1] (first compound 8 µM), 0.619; in experiment [2] (first compound 0.253 µM), 0.826; in experiment [2] (first compound 0.8 µM) it was 0.674. Besides, the relative viability came out at 0.542 in experiment [2] (first compound 2.53 µM); 0.532 in experiment [2] (first compound 8 µM); 0.206 in experiment [3] (first compound 0.253 µM); 0.257 in experiment [3] (first compound 0.8 µM); 0.282 in experiment [3] (first compound 2.53 µM); 0.217 in experiment [3] (first compound 8 µM). Moreover, the relative viability was found to be 0.457 in experiment [4] (first compound 0.253 µM), 0.388 in experiment [4] (first compound 0.8 µM), 0.423 in experiment [4] (first compound 2.53 µM) and 0.419 in experiment [4] (first compound 8 µM).

Regarding NCI-H460, the relative viability was 0.298 in experiment [1] (first compound 0.253 µM); 0.309 in experiment [1] (first compound 0.8 µM); 0.291 in experiment [1] (first compound 2.53 µM); 0.258 in experiment [1] (first compound 8 µM); 0.356 in experiment [2] (first compound 0.253 µM); 0.359 in experiment [2] (first compound 0.8 µM). Also, the relative viability in experiment [2] (first compound 2.53 µM) is 0.394; in experiment [2] (first compound 8 µM) it was 0.391; in experiment [3] (first compound 0.253 µM) it was 0.0613; in experiment [3] (first compound 0.8 µM), 0.0812; in experiment [3] (first compound 2.53 µM), 0.0833; in experiment [3] (first compound 8 µM) it was 0.0883. Also, the relative viability amounted to 0.0757 in experiment [4] (first compound 0.253 µM), 0.107 in experiment [4] (first compound 0.8 µM), 0.144 in experiment [4] (first compound 2.53 µM) and 0.129 in experiment [4] (first compound 8 µM).

Take NCI-H520: the relative viability came to 0.509 in experiment [1] (first compound 0.253 µM); 0.414 in experiment [1] (first compound 0.8 µM); 0.741 in experiment [1] (first compound 2.53 µM); 0.578 in experiment [1] (first compound 8 µM); 0.864 in experiment [2] (first compound 0.253 µM); 0.846 in experiment [2] (first compound 0.8 µM). In addition, the relative viability in experiment [2] (first compound 2.53 µM) is 0.953; in experiment [2] (first compound 8 µM) it was 0.88; in experiment [3] (first compound 0.253 µM) it was 0.247; in experiment [3] (first compound 0.8 µM), 0.258; in experiment [3] (first compound 2.53 µM), 0.263; in experiment [3] (first compound 8 µM) it was 0.251. For the same cell line, the values for the relative viability in experiment [4] (first compound 0.8 µM), in experiment [4] (first compound 2.53 µM) and in experiment [4] (first compound 8 µM) were 0.38, 0.398 and 0.443, respectively.

On to NCI-H647, for which the relative viability in experiment [1] (first compound 0.253 µM) is 0.441; in experiment [1] (first compound 0.8 µM), 0.446; in experiment [1] (first compound 2.53 µM), 0.408; in experiment [1] (first compound 8 µM), 0.2; in experiment [2] (first compound 0.253 µM), 0.724; in experiment [2] (first compound 0.8 µM) it was 0.715. For the same cell line, the relative viability in experiment [2] (first compound 2.53 µM) stood at 0.764; in experiment [2] (first compound 8 µM) it was 0.704; in experiment [3] (first compound 0.253 µM), 0.168; in experiment [3] (first compound 0.8 µM), 0.201; in experiment [3] (first compound 2.53 µM), 0.155; in experiment [3] (first compound 8 µM) it was 0.0745. The relative viability in experiment [4] (first compound 0.253 µM) is 0.166; in experiment [4] (first compound 0.8 µM), 0.105; in experiment [4] (first compound 2.53 µM), 0.126; in experiment [4] (first compound 8 µM), 0.0876.

In the case of NCI-H650, the relative viability was 0.478 in experiment [1] (first compound 0.253 µM); 0.444 in experiment [1] (first compound 0.8 µM); 0.43 in experiment [1] (first compound 2.53 µM); 0.414 in experiment [1] (first compound 8 µM); 1.17 in experiment [2] (first compound 0.253 µM); 0.948 in experiment [2] (first compound 0.8 µM). In addition, the relative viability in experiment [2] (first compound 2.53 µM) was 1; in experiment [2] (first compound 8 µM), 0.986; in experiment [3] (first compound 0.253 µM), 0.323; in experiment [3] (first compound 0.8 µM), 0.318; in experiment [3] (first compound 2.53 µM) it was 0.32; in experiment [3] (first compound 8 µM), 0.314. Also, the relative viability in experiment [4] (first compound 0.253 µM) came to 0.724; in experiment [4] (first compound 0.8 µM), 0.698; in experiment [4] (first compound 2.53 µM), 0.676; in experiment [4] (first compound 8 µM), 0.682.

As for NCI-H661, the relative viability was 0.282 in experiment [1] (first compound 0.253 µM); 0.308 in experiment [1] (first compound 0.8 µM); 0.244 in experiment [1] (first compound 2.53 µM); 0.277 in experiment [1] (first compound 8 µM); 0.73 in experiment [2] (first compound 0.253 µM); 0.421 in experiment [2] (first compound 0.8 µM). In addition, the relative viability in experiment [2] (first compound 2.53 µM) came to 0.629; in experiment [2] (first compound 8 µM) it was 0.564; in experiment [3] (first compound 0.253 µM) it was 0.354; in experiment [3] (first compound 0.8 µM), 0.38; in experiment [3] (first compound 2.53 µM), 0.355; in experiment [3] (first compound 8 µM), 0.302. For the same cell line, the relative viability worked out at 0.305 in experiment [4] (first compound 0.253 µM), 0.319 in experiment [4] (first compound 0.8 µM), 0.308 in experiment [4] (first compound 2.53 µM) and 0.265 in experiment [4] (first compound 8 µM).

In the case of NCI-H727, the relative viability turned out to be 0.613 in experiment [1] (first compound 0.253 µM); 0.496 in experiment [1] (first compound 2.53 µM); 0.482 in experiment [1] (first compound 8 µM); 0.569 in experiment [2] (first compound 0.253 µM); 0.58 in experiment [2] (first compound 0.8 µM); 0.593 in experiment [2] (first compound 2.53 µM). In addition, the relative viability in experiment [2] (first compound 8 µM) was 0.471; in experiment [3] (first compound 0.253 µM) it was 0.672; in experiment [3] (first compound 0.8 µM), 0.708; in experiment [3] (first compound 2.53 µM), 0.718; in experiment [3] (first compound 8 µM) it was 0.596; in experiment [4] (first compound 0.253 µM), 0.65. Moreover, the relative viability in experiment [4] (first compound 0.8 µM) was 0.804; in experiment [4] (first compound 2.53 µM) it was 0.53; in experiment [4] (first compound 8 µM), 0.668.
